Tests used:
Human macrophages [1] = assay: Human macrophage efferocytosis of apoptotic PMN; type: cell-based; details: 17-series sulfido-conjugates 0.1-10 nM; apoptotic PMNs 40 min
Description: (§1) Leukocyte phagocytosis: Macrophages were prepared from peripheral blood mononuclear cells (PBMC) purchased from Children's Hospital Blood Bank, Boston, and phagocytosis was assessed as in (11). Briefly, macrophages (5×10^4 cells,/well) were incubated with SCI (10 pM-100 nM), SCII (10 pM-100 nM), MaR1 (10 pM-100 nM), or vehicle (0.1% EtOH in DPBS) for 15 min at 37° C., then fluorescent labeled apoptotic cells were added and cells incubated 45 min at 37° C. Extracellular fluorescence was quenched using Trypan blue (1:15 dilution) and phagocytosis assessed using an M3 SpectraMax plate reader. In select experiments, macrophages (5×10^4 cells/well) or neutrophils (1×10^5 cells/well) were obtained from human healthy volunteers' peripheral blood as in (11) in accordance with Partners Human Research Committee Protocol (#1999P001297), and incubated with H2DCFDA (5 μM, 30 min, 37° C.), then with SCI (10 pM-100 nM), SCI (10 pM-100 nM) or vehicle (0.1% EtOH in DPBS, 15 min, 37° C.) and E. coli (1:50 leukocytes to E. coli, 45 min, 37° C.) Intracellular reactive oxygen species were determined by measuring fluorescence using an M3 SpectraMax plate reader. To assess bacterial phagocytosis, macrophages (5×10^4 cells/well) or neutrophils (1×10^5 cells/well) were incubated with SCI (10 pM-100 nM), SCII (10 pM-100 nM) or vehicle (0.1% EtOH in DPBS, 15 min, 37° C.), then incubated with BacLight Green (Molecular Probes) labeled E. coli (1:50 leukocytes to E. coli, 45 min, 37° C.), Extracellular fluorescence was quenched using Trypan blue (1:15 dilution), and phagocytosis assessed using an M3 SpectraMax plate reader.
In determined experiments, human macrophages were incubated with SC isolates from regenerating planaria for 15 min at 37° C., then fluorescent labeled apoptotic cells were added and efferocytosis was assessed as detailed above.
Macrophage bacterial phagocytosis, efferocytosis, and phagolysosontal acidification: Human macrophages were plated in 96-well plates (5×10^4 cells per well) for 24 h, and phagocytosis or efferocytosis was assessed as in (14). In brief, apoptotic PMNs were obtained by culturing cells overnight in PBS^−/− (5×10^6 cells/ml). Apoptotic human PMNs were labeled with bisbenzimide H33342 trihydrochloride (Sigma-Aldrich). Human macrophages were incubated with 0.1-10 nM concentration of test products, and then labeled apoptotic PMNs were cocultured with macrophages for 40 min [37° C. […]]. Fluorescence was read on a SpectraMax M3 plate reader (Molecular Devices, Sunnyvale, Calif., USA), and results were analyzed using SoftMax Pro (Molecular Devices).

Human macrophages [2] = assay: Human macrophage phagocytosis of fluorescently labeled E. coli; type: cell-based; details: 17-series sulfido-conjugates 0.1-10 nM, 15 min; bacteria 40 min
Description: as §1
Macrophage phagocytosis was assessed using fluorescently labeled E. coli (serotype O6:K2;H1) with BacLight Green Bacterial Stain (Life Technologies, Eugene, Oreg., USA). E. coli [2.5×10^6 colony-forming units (CFL)/well] were then added to macrophages previously plated in 96-well plates (40 min at 37° C.) and incubated with 0.1-10 nM concentration of test compounds [15 min at 37° C. (pH 7.45)]. Fluorescence was measured on a SpectraMax M3 plate reader, and results were analyzed using SoftMax Pro.

Human macrophages [3] = assay: Macrophage phagolysosomal acidification (pHrodo dye); type: cell-based; details: in the presence of bacteria, 60 min
Description: Macrophage phagolysosomal acidification was assessed by incubating macrophages with pHrodo dye (Invitrogen) following the manufacturer's instructions. Subsequently, cells were incubated with 1 nM of test compounds (15 min at 37° C.), E. coli (2.5×10^6 CFU/well) were added, and fluorescence was assessed after 60 min (37° C.) using a BZ9000 microscope equipped with a ×20 objective (Keyence, Itasca, Ill., USA) and a fluorescence plate reader.

[4] = test system: Mice (hind-limb ischemia/reperfusion); assay: Hind-limb ischemia reperfusion, second organ reflow injury; type: in vivo, mouse; details: SCI plus SCII 50 ng each or RvD1 500 ng i.v.
Description: Ischemia Reperfusion: Mice were anesthetized by intraperitoneal (i.p.) injection of […]. To initiate hind-limb ischemia, tourniquets consisting of a rubber band were placed on each hind limb. Ten min prior to the initiation of reperfusion, Vehicle (saline containing 0.1% EtOH), SCI (50 ng) plus SCII (50 ng) or Resolvin D1 (500 ng) were administered by intravenous injection. At the end of reperfusion (3 h), mice were euthanized, blood collected via cardiac puncture and plasma isolated for lipid mediator metabololipidomics. Lungs were harvested, left lungs were frozen in liquid nitrogen and stored at −80° C. Right lungs were stored in 10% (v/v) buffered formalin and processed for histology and hematoxylin and eosin (H&E) staining by the Children's Hospital Boston Core Histology Facility, imaged using a Keyence BZ-9000 microscope and BZ II imaging software (Keyence) Expression of Ki67 and Roof plate-specific Spondin-3 (RSPO3) were assessed by immunofluorescence staining. Briefly, sections were deparafinized in xylene and rehydrated, then blocked in 10% horse serum and stained with either rat anti-mouse RSPON3 antibody (R&D Systems) for 1 h at room temperature and then with sheep anti-rat Alexa-594 conjugated antibody (BioLegend), or with rabbit anti-mouse antibody (Abeam) and then with donkey anti-rabbit Alexa-488 antibody (BioLegend). Slides were mounted in Vector Shield mounting solution with DAPI (Vector Labs) and immunofluorescence assessed using a Zeiss LSM 510 Meta confocal microscope. Images were processed using ImageJ software (National Institutes of Health) and Adobe Photoshop CS6 (Adobe Systems incorporated) software. Frozen lungs were gently dispersed, centrifuged, and tissue myeloperoxidase (MPO) levels were determined using mouse MPO ELISA (R&D Systems).

| Structure (SMILES) | human macrophage efferocytosis (uptake of apoptotic human PMNs) (Human macrophages [1]) | human macrophage phagocytosis of E. coli (Human macrophages [2]) | macrophage phagolysosomal acidification (Human macrophages [3]) | leukocyte infiltration/migration into lungs and spleens (MPO) [4] |
| --- | --- | --- | --- | --- |
| CC/C=C\CC(O)C(/C=C/C=C/C=C\C/C=C\C/C=C\CCC(=O)O)SCC(NC(=O)CCC(N)C(=O)O)C(=O)NCC(=O)O (centres unmarked) [PCTR1, 16-glutathionyl, 17-hydroxy-4Z,7Z,10,12,14,19Z-docosahexaenoic acid] | dose-dependent increase | dose-dependent increase | dose-dependent increase |  |
| CC/C=C\C[C@H](O)[C@@H](/C=C/C=C/C=C\C/C=C\C/C=C\CCC(=O)O)SC[C@H](N)C(=O)NCC(=O)O [PCTR2, 16-cysteinylglycinyl, 17-hydroxy-4Z,7Z,10,12,14,19Z-docosahexaenoic acid] | dose-dependent increase | dose-dependent increase | dose-dependent increase |  |
| CC/C=C\C[C@H](O)[C@@H](/C=C/C=C/C=C\C/C=C\C/C=C\CCC(=O)O)SC[C@H](N)C(=O)O [PCTR3, 16-cysteinyl, 17-hydroxy-4Z,7Z,10,12,14,19Z-docosahexaenoic acid] | dose-dependent increase | dose-dependent increase | dose-dependent increase |  |
| CC/C=C\C[C@H](O)\C=C/C=C/C=C/[C@H](O)C/C=C\C/C=C\CCC(=O)O [PD1, 10R,17S-dihydroxy-docosa-4Z,7Z,11E,13E,15Z,19Z-hexaenoic acid, reference compound] |  | comparable |  |  |
| CC/C=C\C[C@H](O)/C=C/C=C\C=C\C=C\[C@@H](SC[C@H](NC(=O)CC[C@H](N)C(=O)O)C(=O)NCC(=O)O)[C@@H](O)C/C=C\CCC(=O)O [RCTR1, 8-glutathionyl, 7,17-hydroxy-4Z,9,11,13Z,15E,19Z-docosahexaenoic acid] | dose-dependent increase | dose-dependent increase | dose-dependent increase |  |
| CC/C=C\C[C@H](O)/C=C/C=C\C=C\C=C\[C@@H](SC[C@H](N)C(=O)NCC(=O)O)[C@@H](O)C/C=C\CCC(=O)O [RCTR2, 8-cysteinylglycinyl, 7,17-hydroxy-4Z,9,11,13Z,15E,19Z-docosahexaenoic acid] | dose-dependent increase | dose-dependent increase | dose-dependent increase |  |
| CC/C=C\C[C@H](O)/C=C/C=C\C=C\C=C\[C@@H](O)[C@@H](O)C/C=C\CCC(=O)O [RvD1, 7S,8R,17S-trihydroxy-docosa-4Z,9E,11E,13Z,15E,19Z-hexaenoic acid, reference compound] |  |  |  | comparable |

Reference: patent publication US11135228B2, “Cysteinyl-proresolving mediators that promote resolution of infection and organ protection” (THE BRIGHAM AND WOMEN'S HOSPITAL, priority 2014, dated 2021)
